These results are taken from ChEMBL document CHEMBL1201862, “PubChem BioAssay data set” (2004).

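The compound was tested at five concentrations on cells cultured in 96-well plates, with a 48-hour exposure period. GI50 = concentration required for 50% inhibition of growth.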 Active and inactive are the calls of the source. No stated cut-off is given here; in the data, active = GI50 up to about 1.1 µM and inactive = higher. Some results are limits rather than exact numbers.

What all share (assay): NCI tumour cell line growth inhibition, 48 h
The subject of test [1] is SK-MEL-28.
Test [2] has as its system TK-10.
Test [3] concerns OVCAR-3.
In test [4] the test system is KM12.
The subject of test [5] is SW-620.
Test [6] relates to NCI-H460.
In test [7] the test system is A498.
Test [8] has as its system HL-60.
In test [9] the test system is NCI-H23.
Test [10] has as its system M14.
Test [11] concerns K562.
Test [12] has as its system MOLT-4.
In test [13] the test system is SR.
The test system of test [14] is SF-539.
Test [15] relates to HOP-62.
Test [16] relates to OVCAR-4.

Turning to `CC(=O)c1ccc(NC(=O)/C(Cc2ccccn2)=N/NC(=O)C[N+](C)(C)C)cc1`, the GI50 in test [1], in [2], in [3], in test [4], in [5] and in [6] was > 100 µM (inactive) throughout. Also, the GI50 in [7], in test [8], in [9], in [10], in [11] and in [12] was > 100 µM (inactive) throughout. The GI50 in test [13], in test [14], in test [15] and in test [16] was > 100 µM (inactive) in each case.
Regarding `CCCCOCN/C(N)=N/C#N`, the GI50 in [1] is > 100 µM (inactive); in test [2] it was > 100 µM (inactive); in test [3] it was > 100 µM (inactive); in test [4], 71.4 µM (inactive); in [5] it was 18.2 µM (inactive); in test [6], > 100 µM (inactive). Also, the GI50 was > 100 µM (inactive) in [7]; > 100 µM (inactive) in [8]; > 100 µM (inactive) in test [9]; > 100 µM (inactive) in [10]; 73.6 µM (inactive) in [11]; > 100 µM (inactive) in test [12]. The GI50 is 19.6 µM (inactive) in test [13], > 100 µM (inactive) in test [14], > 100 µM (inactive) in test [15] and 64.1 µM (inactive) in [16].
On to `NC(=O)C#CC#CC#CCO`, for which the GI50 in [1] was 2.14 µM (inactive); in [2] it was 1.61 µM (inactive); in test [3] it was 1.9 µM (inactive); in test [4], 3.31 µM (inactive); in test [5] it was 1.51 µM (inactive); in test [6], 5.96 µM (inactive). In addition, the GI50 in test [7] was 4.4 µM (inactive); in [8] it was 1.26 µM (inactive); in test [9], 2.12 µM (inactive); in [10], 1.98 µM (inactive); in [11], 2.04 µM (inactive); in [12] it was 0.998 µM (active). Besides, the GI50 in [13] was 2.47 µM (inactive); in test [15], 10.9 µM (inactive); in test [16] it was 1.83 µM (inactive).
Consider `COC(=O)CCC(=O)C(C#N)c1ccc(Cl)cc1Cl` (centres undefined), for which the GI50 in [1], in [2], in test [3], in test [4], in test [5] and in test [8] was > 100 µM (inactive) each time. For the same compound, the GI50 in test [9], in test [10], in test [11], in [12], in [13] and in test [14] was > 100 µM (inactive) throughout.
Take `CCOC(=O)NC(=O)c1cn(CCCOC(=O)CCCCCCCCCCC(=O)OCCCn2cc(C(=O)NC(=O)OCC)c(=O)[nH]c2=O)c(=O)[nH]c1=O`: the GI50 in test [1], in [2], in [3], in [4], in test [5] and in test [6] was > 100 µM (inactive) each time. Besides, the GI50 in test [8], in test [9], in [10], in [11], in test [12] and in test [13] was > 100 µM (inactive) each time. In addition, the GI50 in test [14], in test [15] and in test [16] was > 100 µM (inactive) each time.
On to `CC(C)OP(=O)(OC(C)C)/C(N)=N/Nc1ccc([N+](=O)[O-])cc1`, for which the GI50 in test [1] is > 100 µM (inactive); in test [2] it was 27 µM (inactive); in [3], > 100 µM (inactive); in test [4], > 100 µM (inactive); in test [5], > 100 µM (inactive); in [6], 41.7 µM (inactive). Further, the GI50 in test [8] was 58.3 µM (inactive); in test [9] it was 63 µM (inactive); in test [10] it was > 100 µM (inactive); in test [11], 77.6 µM (inactive); in [12], 52.1 µM (inactive); in [13], > 100 µM (inactive). Moreover, the GI50 in test [14], in test [15] and in test [16] was > 100 µM (inactive) throughout.
With `O=[N+]([O-])C1Cc2ccccc2OC1c1ccccc1` (centres undefined), the GI50 in [1] is 86.1 µM (inactive); in test [2], 77.1 µM (inactive); in test [3] it was > 100 µM (inactive); in test [4], > 100 µM (inactive); in [5], > 100 µM (inactive); in [7] it was > 100 µM (inactive). Besides, the GI50 in [8] was 39.4 µM (inactive); in [9] it was 92.9 µM (inactive); in [10] it was > 100 µM (inactive); in [11], 26.8 µM (inactive); in [12] it was 23.4 µM (inactive); in test [13], 15.3 µM (inactive). Moreover, the GI50 in test [14] is 31.2 µM (inactive); in test [15], 33.5 µM (inactive); in test [16] it was > 100 µM (inactive).
Regarding `O=C(/C=C(\O)C(=O)O)/C=C(\O)c1ccccc1`, the GI50 in [2], in test [3], in test [5], in test [6], in test [7] and in [8] was > 4.65 µM (inactive) each time. The GI50 was > 100 µM (inactive) in test [10]; > 4.65 µM (inactive) in [11]; > 100 µM (inactive) in test [12]; > 100 µM (inactive) in [13]; > 4.65 µM (inactive) in test [15]; > 4.65 µM (inactive) in test [16].
Turning to `CNc1ccc([N+](=O)[O-])c2c(NCCCN(C)C)ccnc12`, the GI50 in test [1], in test [2], in test [3], in [4], in [5] and in test [6] was > 100 µM (inactive) throughout. The GI50 in test [8] is > 100 µM (inactive); in test [9] it was 99.1 µM (inactive); in test [10] it was > 100 µM (inactive); in [11], > 100 µM (inactive); in test [12] it was > 100 µM (inactive); in [13], > 100 µM (inactive). Also, the GI50 in [14], in test [15] and in [16] was > 100 µM (inactive) in each case.
Consider `COC(=O)C1=C(c2ccc3c(c2)OCO3)OC(c2cc(OC)c(OC)c(OC)c2)C1` (centres undefined), for which the GI50 is > 100 µM (inactive) in test [1]; 5.2 µM (inactive) in test [2]; 1.43 µM (inactive) in test [3]; 0.557 µM (active) in test [5]; 3.49 µM (inactive) in test [6]; 2.43 µM (inactive) in [7]. In addition, the GI50 is 3.21 µM (inactive) in test [9]; 3.53 µM (inactive) in test [10]; 0.883 µM (active) in [11]; 6.44 µM (inactive) in test [12]; 0.667 µM (active) in [13]; 5.11 µM (inactive) in test [14]. Further, the GI50 in test [15] is > 100 µM (inactive); in test [16], 4.83 µM (inactive).
In the case of `CCCCCCCCCC1CC(=O)OC2=C1C(=O)CCC2` (centres undefined), the GI50 in test [1], in test [2], in [3], in [4], in test [5] and in test [6] was > 100 µM (inactive) each time. Moreover, the GI50 in test [8], in test [9], in test [10], in [11], in test [12] and in [13] was > 100 µM (inactive) in each case. In addition, the GI50 in [14], in test [15] and in test [16] was > 100 µM (inactive) in each case.
Consider `Cc1nn(C)c(=O)c2nn(-c3ccccc3)c(C)c12`, for which the GI50 in test [1], in test [2], in [3], in [4], in [5] and in test [6] was > 100 µM (inactive) in each case. The GI50 in [7], in test [8], in [9], in test [10], in test [11] and in test [12] was > 100 µM (inactive) throughout. In addition, the GI50 in [13], in [14], in [15] and in test [16] was > 100 µM (inactive) each time.
On to `O=C(c1ccccc1)c1ccc2cccc(O)c2n1`, for which the GI50 in [1] was 29.3 µM (inactive); in test [2] it was 94.8 µM (inactive); in [3], 50.8 µM (inactive); in [4] it was 74.5 µM (inactive); in test [5], 13.5 µM (inactive); in test [9], 22.6 µM (inactive). Besides, the GI50 is 13.8 µM (inactive) in test [10]; 9.23 µM (inactive) in test [11]; 5.27 µM (inactive) in test [12]; 15.4 µM (inactive) in test [13]; 32.6 µM (inactive) in test [14]; 52.4 µM (inactive) in test [15]. Also, the GI50 in [16] is 67.8 µM (inactive).
Regarding `[N-]=[N+]=NC1C2CC3C4CC5CC3[C@H](C2)C(C5)C41` (some centres undefined), the GI50 in test [1], in test [2], in test [3], in test [4], in [5] and in test [6] was > 100 µM (inactive) each time. Further, the GI50 in test [7], in test [9], in [10], in [11], in [12] and in test [13] was > 100 µM (inactive) in each case. Moreover, the GI50 in test [14], in test [15] and in [16] was > 100 µM (inactive) each time.
